What is called GI50 is the concentration giving 50% growth inhibition. Broadly, the TGI is the concentration at which net growth stops. Low readings indicate greater sensitivity of the cells, high ones lower sensitivity of the cells.

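Five concentrations, 48 hours, 96-well plates. GI50 is the concentration that inhibits growth by half. At the TGI there is no net growth.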

These results are taken from PubChem BioAssay (NCI).

Test systems include HCT-116 colon; SW-620 colon; TK-10 renal; CAKI-1 renal; UO-31 renal; SR leukemia; HOP-92 NSCLC; SF-295 CNS; COLO 205 colon; NCI-H226 lung.
What all share (experiment): DTP human tumour cell line panel, 48 h

Regarding `CCCCON(OC(=O)c1ccc2ccc3cccc4ccc1c2c34)C(C)=O`, the GI50 with HCT-116 colon was 22.4 µM; with SW-620 colon, 18.5 µM; with TK-10 renal it was 30.5 µM; in the test on CAKI-1 renal, 14.4 µM; in the test with UO-31 renal it was 19.5 µM; in the test on SR leukemia, 13.2 µM. Further, the GI50 with HOP-92 NSCLC is 16.3 µM; with SF-295 CNS, 30.3 µM; in the test with COLO 205 colon, 24.9 µM; in the test with NCI-H226 lung, 21 µM. For the same compound, the TGI with HCT-116 colon stood at 52.3 µM; with SW-620 colon, 39.1 µM; in the test on TK-10 renal, 87.9 µM; in the test on CAKI-1 renal, 32.6 µM; in the test on UO-31 renal, 42.4 µM; in the test on SR leukemia, 35.1 µM. Besides, the TGI is 44.3 µM with HOP-92 NSCLC, greater than 100 µM with SF-295 CNS, 98.9 µM with COLO 205 colon and 53.3 µM with NCI-H226 lung.
Take `COc1ccc(CC2NCCc3cc(OC)c(OC)cc32)cc1Br` (stereo not given): the TGI in the test on HCT-116 colon is 36.9 µM; in the test on SW-620 colon, greater than 70.5 µM; in the test with TK-10 renal, greater than 89.8 µM; with CAKI-1 renal, greater than 100 µM; in the test with UO-31 renal, greater than 100 µM; with SR leukemia, 74.6 µM. Moreover, the TGI in the test with HOP-92 NSCLC turned out to be 61.7 µM; in the test with SF-295 CNS it was 86.7 µM; with COLO 205 colon, 32.6 µM; in the test on NCI-H226 lung, 73.9 µM.
`ClCc1cccc(Cn2cnc3nc(Cl)nc(Cl)c32)c1`: the GI50 with HCT-116 colon was 0.285 µM; with SW-620 colon, 0.419 µM; with TK-10 renal it was 5.95 µM; with CAKI-1 renal, 1.89 µM; in the test on UO-31 renal it was 4.43 µM; in the test with SR leukemia it was 0.233 µM. The GI50 was 1.46 µM in the test on HOP-92 NSCLC, 2.02 µM in the test on SF-295 CNS, 1.69 µM in the test on COLO 205 colon and 1.04 µM in the test with NCI-H226 lung. Also, the TGI in the test with HCT-116 colon was found to be 0.731 µM; in the test with SW-620 colon it was 1.67 µM; in the test with TK-10 renal, 10.8 µM; in the test with CAKI-1 renal, 3.4 µM; with UO-31 renal, 9.1 µM; with SR leukemia, 2.6 µM. For the same compound, the TGI in the test with HOP-92 NSCLC came out at 2.78 µM; in the test with SF-295 CNS, 3.78 µM; in the test with COLO 205 colon, 4.22 µM; with NCI-H226 lung, 3.54 µM.
For the compound `O=C1CSC(/C(=N/Nc2ccccc2)c2nc3ccccc3[nH]2)=N1`, the TGI with HCT-116 colon is greater than 100 µM; in the test on SW-620 colon it was greater than 100 µM; in the test with TK-10 renal, greater than 100 µM; in the test with CAKI-1 renal, 56.1 µM; in the test with UO-31 renal it was greater than 100 µM; in the test with SR leukemia, 31.1 µM. In addition, the TGI in the test on HOP-92 NSCLC is 49.7 µM; in the test on SF-295 CNS, 58.5 µM; in the test on COLO 205 colon, greater than 100 µM; in the test on NCI-H226 lung it was 59.7 µM.
